# Key:
# Format in all cases: in vivo, rat
# [1] = test system: TNF-α, IL-1β, ICAM-1, VCAM-1, iNOS, AQP-4; experiment: Expression of TNF-α, IL-1β, ICAM-1, VCAM-1, iNOS and AQP-4 in ischemic cerebral tissue (FIG. 2)
# Excerpt: B is a statistic chart that quantifies the expression of TNF-α, IL-1β, ICAM-1, VCAM-1, iNOS and AQP-4 with β-actin as internal standard.
# With β-actin as internal standard, the expressions of TNF-α, IL-1β, ICAM-1, VCAM-1, iNOS, AQP-4 were quantified, and the inhibition effects of pinocembrin racemate on the above proteins were seen intuitively.
# [2] = test system: tMCAO rats; experiment: Therapeutic time window in focal cerebral ischemia-reperfusion injured rats; conditions: 1 mg/kg, 5 mg/kg; for effect on neurobehavioral injury, infarct volume and cerebral edema: tMCAO rats
# Description: 1. In the test, transient middle cerebral artery occlusion (tMCAO) model of rats was adopted. The reperfusion was performed after focal cerebral ischemia for 2 hours so as to inspect therapeutic time window of pinocembrin after focal cerebral ischemia. The rats were administered by pinocembrin racemate (1 mg/kg, 5 mg/kg, intravenous injection) after reperfusion 1 hour, 4 hours and 6 hours (i.e., ischemia 3 hour, 6 hours and 8 hours). (R)-pinocembrin and (S)-pinocembrin (1 mg/kg, 5 mg/kg, intravenous injection) were administered after reperfusion 1 hour and 4 hours (i.e., ischemia 3 hour and 6 hours). The therapeutic time windows of these drugs in focal cerebral ischemia were assessed by studying their effects to neurological symptom scores, infarct sizes and brain water contents during 24 hours after tMCAO.
# 2.4 Experimental Grouping and Administration • Sham operation group (intravenous injection of normal saline after 3 hours of ischemia); • Model group (intravenous injection of 50 mg/kg hydroxypropyl β-cyclodextrin after 3 hours of ischemia); • Nimodipine group (1 mg/kg, administered after 3 hours of ischemia); • Pinocembrin racemate group (1 mg/kg, 5 mg/kg, administered after 3, 6 and 8 hours of ischemia); • (R)-pinocembrin group (1 mg/kg, 5 mg/kg, administered after 3 and 6 hours of ischemia); • (S)-pinocembrin group (1 mg/kg, 5 mg/kg, administered after 3 and 6 hours of ischemia).
# First administration was performed by intravenous injection, and intraperitoneal injection was carried out once 12 hours later with a dose 1.5 times of that for intravenous injection.
# [3] = test system: cerebral ischemic tissue in MCAO rats; experiment: Energy metabolism indexes in cerebral ischemic tissue, MCAO; conditions: for increase of energy index relative to the model group: 24 hours of cerebral ischemia; for ADP / AMP / ATP / CrP / Energy Load: cerebral ischemic tissue, MCAO rats
# Excerpt: The obtained r values were respectively rATP=0.9897, rADP=0.9896, rAMP=0.9893, rCrP=0.9981. The recovery rates of 4 kinds of standard materials were respectively (86.6±5.6) %, (94.45±7.5) %, (83.4±6.1) %, (78.69±7.3) %.
# [4] = test system: MCAO rats; experiment: Cerebral edema and Evans blue / fluorescein sodium leakage, MCAO; conditions: 24 hours
# Description: After surgery, a mixture solution of EB/NF (0.5%, dissolved in normal saline) of 0.25 ml was immediately (immediately after administration in the administration groups) injected via tail vein in the animals. 24 hours later, a normal saline was perfused in the hearts of the rats to get rid of unbound dye. The rats were decollated and the brain tissues were promptly removed and separated into ischemic hemisphere and non-ischemic hemisphere. The two hemispheres were weighted respectively and homogenated with 7.5% (w/v) trichloroacetic acid (TCA). The homogenate was divided into two parts, in which 1 ml homogenate was adjusted with 52 μl NaOH (5N) to reach a neutral pH value, and 200 μl of it was taken out to determine the fluorescence intensity (excitation 485 nm, emission 535 nm), the NF thereof was determined by using a standard curve made with NF solutions of concentration series. Another part of homogenate was centrifuged for 20 min at 12000 g and 4° C. 200 μl supernatant was taken out to a microplate and its absorbance was determined at 620 nm, and EB thereof was determined by using a standard curve made with EB solutions of concentration series. The results were expressed in form of μg EB (or NF)/g brain wet weight. Percentage of brain edema was expressed as: (brain weight in ischemic hemisphere−brain weight in non-ischemic hemisphere)/brain weight in non-ischemic hemisphere×100%.
# [5] = 24 h after ischemia, 3 mg/kg, 10 mg/kg, 30 mg/kg in early stage of ischemia, FIG. 2
compound,measurement,setting,value
"O=C1CC(c2ccccc2)Oc2cc(O)cc(O)c21 (racemic) [Pinocembrin racemate, pinocembrin racemate]",expression of cytokines TNF-α and IL-1β in cerebral ischemia tissue,[1]; [5],"inhibited the expression of TNF-α, IL-1β in some extents"
same,expression of iNOS and AQP-4 protein,[1]; [5],inhibited the expression of iNOS and AQP-4 protein in some extents
same,"inhibition of expression of TNF-α, IL-1β, ICAM-1, VCAM-1, iNOS, AQP-4 quantified with β-actin as internal standard",[1]; doses of 10 mg/kg and 30 mg/kg,showed better results
same,therapeutic time window,"[2]; acute ischemic stroke in rats (tMCAO), iv",about 6 hours
same,"effect on neurobehavioral injury, infarct volume and cerebral edema",[2]; initially injected after 3 hours of ischemia,significant
same,"effect on neurobehavioral injury, infarct volume and cerebral edema",[2]; initially injected after 6 hours of ischemia,significant
same,increase of energy index relative to the model group,"[3]; first of two values printed for groups 3, 10, 30 mg/kg",34.6%
same,increase of energy index relative to the model group,"[3]; second of two values printed for groups 3, 10, 30 mg/kg",45.8%
same,ADP,[3]; 3 mg/kg,0.31 ± 0.04 µmol/g
same,AMP,[3]; 3 mg/kg,0.02 ± 0.00 µmol/g
same,ATP,[3]; 3 mg/kg,1.18 ± 0.18 µmol/g
same,CrP,[3]; 3 mg/kg,3.98 ± 1.23 µmol/g
same,Energy Load,[3]; 3 mg/kg,0.73 ± 0.23
same,ADP,[3]; 10 mg/kg,0.35 ± 0.06 µmol/g
same,AMP,[3]; 10 mg/kg,0.02 ± 0.00 µmol/g
same,ATP,[3]; 10 mg/kg,1.62 ± 0.21 µmol/g
same,CrP,[3]; 10 mg/kg,4.12 ± 1.25 µmol/g
same,Energy Load,[3]; 10 mg/kg,0.88 ± 0.23
same,ADP,[3]; 30 mg/kg,0.38 ± 0.05 µmol/g
same,AMP,[3]; 30 mg/kg,0.02 ± 0.00 µmol/g
same,ATP,[3]; 30 mg/kg,1.97 ± 0.58 µmol/g
same,CrP,[3]; 30 mg/kg,4.43 ± 1.34 µmol/g
same,Energy Load,[3]; 30 mg/kg,0.96 ± 0.29
same,EB leakage (μg/g tissue),[4]; 3 mg/kg iv,6.16 ± 0.4 μg/g tissue
same,NF leakage (μg/g tissue),[4]; 3 mg/kg iv,1.48 ± 0.08 μg/g tissue
same,Percentage of brain edema volume (%),"[4]; 3 mg/kg iv, 3 mg/kg",5.5±1.7%
same,EB leakage (μg/g tissue),[4]; 10 mg/kg iv,5.03 ± 0.8 μg/g tissue
same,NF leakage (μg/g tissue),[4]; 10 mg/kg iv,1.39 ± 0.20 μg/g tissue
same,Percentage of brain edema volume (%),"[4]; 10 mg/kg iv, 10 mg/kg",4.1±1.5%
same,EB leakage (μg/g tissue),[4]; 30 mg/kg iv,4.39 ± 0.4 μg/g tissue
same,NF leakage (μg/g tissue),[4]; 30 mg/kg iv,1.30 ± 0.15 μg/g tissue
same,Percentage of brain edema volume (%),"[4]; 30 mg/kg iv, 30 mg/kg",3.2±2.1%

# From patent US20110245334A1, “USE OF RACEMATES OF PINOCEMBRIN IN PREPARING MEDICAMENTS FOR TREATING STROKE” (CSPC Zhonggi Pharmaceutical Technology (Shijiazhuang) Co. …, priority 2008, published 2011)
